Laboratory results reported in patent publication US20080242663A1, “NOVEL PYRIMIDINE DERIVATIVES 698” (ASTRAZENECA AB, priority 2007, published 2008).

Experiments:
recombinant EphB4 = biological target: T1, recombinant EphB4 (Homo sapiens, UniProt P54760); assay: In vitro EphB4 enzyme assay (Alphascreen); type: biochemical
T1 construct: amino acids 563-987; Swiss-Prot Acc; No. P54760; purchased ProQinase GmbH 0178-0000-3
T1 sequence (P54760 563-987): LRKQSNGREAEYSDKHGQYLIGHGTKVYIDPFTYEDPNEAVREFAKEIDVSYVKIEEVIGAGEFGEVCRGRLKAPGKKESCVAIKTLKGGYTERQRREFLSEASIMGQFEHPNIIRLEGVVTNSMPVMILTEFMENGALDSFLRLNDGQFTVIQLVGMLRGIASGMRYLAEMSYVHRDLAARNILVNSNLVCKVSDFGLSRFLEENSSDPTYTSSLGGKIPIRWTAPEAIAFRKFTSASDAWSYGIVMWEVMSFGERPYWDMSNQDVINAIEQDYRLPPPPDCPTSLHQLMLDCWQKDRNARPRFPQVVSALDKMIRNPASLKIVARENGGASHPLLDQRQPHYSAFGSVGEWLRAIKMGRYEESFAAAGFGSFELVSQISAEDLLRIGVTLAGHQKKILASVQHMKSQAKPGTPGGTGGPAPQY
Procedure, shortened: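 Recombinant EphB4 phosphorylated biotin-poly-GAT with Mg-ATP for 1 hr at room temperature; EDTA stop, then Alphascreen donor/acceptor (anti-phosphotyrosine) beads for 20 hrs in the dark. After minimum subtraction, signal plotted against compound concentration to derive IC50.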

human EphB4 = biological target: T2, human EphB4 (Homo sapiens, UniProt P54760); assay: In vitro EphB4 cell assay (EphB4 phosphorylation in EphB4-CHO cells, sandwich ELISA); type: cell-based; conditions: Assay B
T2 construct: to generate full-length EphB4 containing a Myc-His tag at the C-terminus; expressed in transfected cells; EphB4-CHO)
T2 sequence (P54760 16-987): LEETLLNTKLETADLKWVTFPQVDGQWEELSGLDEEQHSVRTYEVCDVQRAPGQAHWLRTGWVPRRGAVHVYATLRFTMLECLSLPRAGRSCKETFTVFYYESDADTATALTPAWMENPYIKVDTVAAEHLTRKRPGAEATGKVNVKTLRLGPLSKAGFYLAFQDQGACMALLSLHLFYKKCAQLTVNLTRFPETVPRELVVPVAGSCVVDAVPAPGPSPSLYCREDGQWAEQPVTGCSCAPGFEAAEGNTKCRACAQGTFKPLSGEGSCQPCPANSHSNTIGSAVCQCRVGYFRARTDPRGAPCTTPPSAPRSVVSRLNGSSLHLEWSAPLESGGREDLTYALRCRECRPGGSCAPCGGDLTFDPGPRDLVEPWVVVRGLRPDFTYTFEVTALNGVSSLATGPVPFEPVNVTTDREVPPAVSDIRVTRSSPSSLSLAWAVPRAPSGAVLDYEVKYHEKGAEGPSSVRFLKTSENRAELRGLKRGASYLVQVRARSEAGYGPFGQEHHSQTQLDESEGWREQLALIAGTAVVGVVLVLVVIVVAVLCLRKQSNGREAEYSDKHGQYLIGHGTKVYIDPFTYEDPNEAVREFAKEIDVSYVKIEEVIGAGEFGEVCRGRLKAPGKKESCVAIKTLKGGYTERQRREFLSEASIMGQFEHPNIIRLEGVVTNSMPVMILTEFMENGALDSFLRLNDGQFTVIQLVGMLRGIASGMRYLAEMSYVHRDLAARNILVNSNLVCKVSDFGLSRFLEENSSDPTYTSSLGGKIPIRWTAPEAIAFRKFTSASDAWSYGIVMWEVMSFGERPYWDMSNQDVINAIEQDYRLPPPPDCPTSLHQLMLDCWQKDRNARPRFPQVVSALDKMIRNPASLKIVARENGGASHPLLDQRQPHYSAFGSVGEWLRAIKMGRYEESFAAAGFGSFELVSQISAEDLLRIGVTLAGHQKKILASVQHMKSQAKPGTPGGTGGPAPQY
Description: The assay identifies inhibitors of cellular EphB4 by measuring a decrease in phosphorylation of EphB4 following treatment of cells with compound. The endpoint assay used a sandwich ELISA to detect EphB4 phosphorylation status. Briefly, Myc-tagged EphB4 from treated cell lysate was captured on the ELISA plate via an anti-c-Myc antibody. The phosphorylation status of captured EphB4 was then measured using a generic phosphotyrosine antibody conjugated to HRP via a colourimetric output catalysed by HRP, with level of EphB4 phosphorylation directly proportional to the colour intensity. Absorbance was measured spectrophotometrically at 450 nm.
Full length human EphB4 (Swiss-Prot Acc. No. P54760) was cloned using standard techniques from cDNA prepared from HUVEC using RT-PCR. The cDNA fragment was then sub-cloned into a pcDNA3.1 expression vector containing a Myc-His epitope tag to generate full-length EphB4 containing a Myc-His tag at the C-terminus (Invitrogen Ltd. Paisley, UK). […] CHO-K1 cells were engineered to stably express the EphB4-Myc-His construct using standard stable transfection techniques, to generate cells hereafter termed EphB4-CHO.
On day 2, the cells were incubated overnight in 90 μl/well of media containing 0.1% Hyclone stripped-serum (Fisher Scientific UK, Catalogue No. SH30068.02). […] A 10 μl aliquot of each compound dilution was transferred to the cell plates in duplicate wells, and the cells incubated for 1 hr at 37° C.
Following compound treatment, cells were stimulated with clustered ephrin-B2 at a final concentration of 1 μg/ml for 20 minutes at 37° C. to induce EphB4 phosphorylation. Following stimulation, the medium was removed and the cells lysed in 100 μl/well of lysis buffer (25 mM Tris HCl, 3 mM EDTA, 3 mM EGTA, 50 mM NaF, 2 mM orthovanadate, 0.27M Sucrose, 10 mM β-glycerophosphate, 5 mM sodium pyrophosphate, 2% Triton X-100, pH 7.4).
Plates were washed twice with PBS/0.05% Tween-20 and incubated with 100 μl/well cell lysate overnight at 4° C. […] ELISA plates were washed four times with PBS/0.05% Tween-20 and developed with 100 μl/well TMB substrate (Sigma-Aldrich Company Ltd, Catalogue No. T0440). The reaction was stopped after 15 minutes with the addition of 25 μl/well 2M sulphuric acid. The absorbances were determined at 450 nm using the Tecan SpectraFluor Plus. The minimum value was subtracted from all values, and the signal plotted against compound concentration to generate IC50 data.

[1] = tested on: Human Colorectal cancer cells (HT29); assay: In vivo tumour explant model; parameters: species or system nude male mice (nu/nu:Alpk); conditions: HT29 tumours in nude mice, 100 mg/kg b.i.d. orally, 16 consecutive days
Description: Human Colorectal cancer cells (HT29 5×10^6 (ATCC HTB-38)) were implanted subcutaneously on to the left flank of nude male mice (nu/nu:Alpk). Actively growing tumours approx 0.2-0.3 cm^3 were selected and randomised. […] Tumours were measured twice weekly and volumes (cm^3) calculated (π/6×(length×width×width)/1000). On the final day of the dosing the tumours were measured, percent growth inhibition was then calculated compared to the control ((([…]-1))*100), where GMDV is the geometric delta volume of either treated (T) or control (C), and a T-Test was performed to establish significance.

SMILES | IC50 (recombinant EphB4) | IC50 (human EphB4) | tumour volume [1]
CN1CCN(c2cccc(Nc3nccc(N(C)c4ccc(F)c(Cl)c4F)n3)c2)CC1 [Example 4, N′-(3-chloro-2,4-difluoro-phenyl)-N′-methyl-N-[3-(4-methylpiperazin-1-yl)phenyl]pyrimidine-2,4-diamine] | 63.8 nM | 1710 nM | 
Cc1ccc(CO)cc1N(C)c1ccnc(Nc2cc(N3CCOCC3)cc(N3CCOCC3)c2)n1 [[3-[[2-[(3,5-dimorpholin-4-ylphenyl)amino]pyrimidin-4-yl]-methyl-amino]-4-methyl-phenyl]methanol] |  |  | reducing tumour volume

Now from value to molecule, other results behind:

IC50 (recombinant EphB4) | IC50 (human EphB4) | SMILES | tumour volume [1]
1110 nM | 17 nM | CC(C)OCc1cc(Nc2nccc(N(C)c3ccc(F)c(Cl)c3F)n2)cc(N2CCOCC2)c1 [Example 2.15, N′-(3-chloro-2,4-difluoro-phenyl)-N′-methyl-N-[3-morpholin-4-yl-5-(propan-2-yloxymethyl)phenyl] pyrimidine-2,4-diamine] | 
1270 nM | 11 nM | CN(c1ccnc(Nc2cc(N3CCCOCC3)cc(N3CCOCC3)c2)n1)c1ccc(F)c(Cl)c1F [Example 2.10, N′-(3-chloro-2,4-difluoro-phenyl)-N′-methyl-N-[3-morpholin-4-yl-5-(1,4-oxazepan-4-yl)phenyl]pyrimidine-2,4-diamine] | 
28.9 nM | 21 nM | CN(c1ccnc(Nc2cc(CN3CCCC3)cc(N3CCOCC3)c2)n1)c1ccc(F)c(Cl)c1F [Example 2.17, N′-(3-chloro-2,4-difluoro-phenyl)-N′-methyl-N-[3-morpholin-4-yl-5-(pyrrolidin-1-ylmethyl)phenyl]py-rimidine-2,4-diamine] | 
2180 nM | 74 nM | CN(c1ccnc(Nc2cc(F)cc(N3CCOCC3)c2)n1)c1ccc(F)c(Cl)c1F [Example 2.2, N′-(3-chloro-2,4-difluoro-phenyl)-N-(3-fluoro-5-morpholin-4-yl-phenyl)-N′-methyl-pyrimidine-2,4-diamine] | 
